From US4419348A, “Anthracycline glycoside compositions, their use and preparation” (priority 1981, dated 1983)
“Also recorded” adds a separate entry of the source. Structures can show the parent of a compound that is named as a salt.

Key:
[1] = Electron microscopy of cardiac tissue (cardiotoxicity); format: in vivo, DBA/2 mice; settings: 15 mg/kg i.v.; day three, five and seven; listed as free Adriamycin, hydrochloride
Experimental: To determine whether the reduced cardiac uptake of Adriamycin in cardiolipin complex encapsulated liposomes prevented cardiotoxicity, electron microscope studies of this organ were performed. DBA/2 mice were injected i.v. with free drug or drug entrapped in cardiolipin complex encapsulated liposomes at a dose of 15 mg/kg. Three mice in each group were sacrificed by cervical dislocation on day three, five and seven and hearts were immediately removed and placed in physiological saline. The apex of the left ventricle with part of the septum was dissected out and minced into one cubic mm blocks and fixed in 2.5% glutaraldehyde buffered with 0.1 M cacodylate, pH 7.2 for two hours at room temperature. The specimens were rinsed in buffer, osmicated in Bennett and Luft's collidin buffered osmium tetroxide, dehydrated in graded ethanols and acetone, and embedded in Epon. For electron microscopy, preliminary 1 μm Epon sections were stained with alkaline toluidine blue and appropriate areas were chosen for ultrathin sectioning, following which random sections were taken on 200 mesh copper grids and stained with uranyl acetate and lead citrate. A JEOL 100 S Electron microscope at an accelerating voltage of 80 KeV was utilized for viewing the sections.

[2] = system: murine P388 ascitic leukemia; assay: Antitumor activity against P388 ascitic leukemia, survival; format: in vivo, DBA/2 mice; settings: 4 mg/kg i.p., 24 hours after 1×10^5 P388 cells i.p.
Experimental: To determine whether encapsulation of Adriamycin cardiolipin complex into liposomes reduced the antitumor activity of the drug, the effectiveness of liposomes-encapsulated Adriamycin cardiolipin complex against the murine P388 ascitic leukemia in DBA/2 mice was studied. Mice were injected i.p with 1×10^5 cells of P388 leukemia. Twenty-four hours after tumor implanation, mice were administered intraperitoneally free Adriamycin or cardiolipin complex-encapsulated liposome at a dose of 4 mg/kg. Control mice received 0.9% NaCl or blank liposomes representing the same concentration of lipids as used to encapsulate Adriamycin cardiolipin complex. All injections were made on 2% body weight basis. Mice were weighed on day of injection, doses of drugs were calculated on body weight basis, and the survival time of mice was recorded in days.
Mice weighing 20 to 25 g were given i.p. injections of 10^5 cells and 24 hours later free or cardiolipin complex-encapsulated liposome Adriamycin was administered.

[3] = pharmacokinetic studies; cited from earlier work
in vivo = settings: mouse, iv, 4 mg/kg
Experimental: The physiologic disposition of free Adriamycin and of liposome encapsulated Adriamycin cardiolipin complex was determined in DBA/2 mice weighing 20-25 gm. Mice were injected with free Adriamycin and Adriamycin-cardiolipin complex encapsulated in liposomes via the tail vein at a dose of 4 mg/kg and at 2% body weight. At sequential time points from 5 minutes to 24 hours after drug administration, mice were bled through orbital sinus in hepanized tubes. Plasma was separated immediately and stored at -20° C. Four mice in each treatment group were killed by cervical dislocation and heart, liver, kidney, spleen, lungs and small intestine were rapidly excised, rinsed in 0.9% NaCl and stored at -20° C. until assayed.
Briefly, plasma was extracted with 5 volumes of 0.3 N HCl-50% ethanol and tissues were homogenized with 20 volumes of the acid alcohol. Plasma and tissue homogenates were centrifuged at 15,000 rpm for 10 minutes and the clear supernatant was assayed fluorometrically in a Perkin Elmer equipment at 470 nm excitation and 585 nm emission. Control tissues obtained from mice treated with blank liposomes were read similarly in the fluorometer to correct for any endogenous fluorescence. Fresh Adriamycin standards were prepared in ) 0.3 N HCl--50% ethanol each day to calculate the concentration of Adriamycin in the tissue samples.

[4] = in vivo; cited from earlier work

## COc1cccc2c1C(=O)c1c(O)c3c(c(O)c1C2=O)C[C@@](O)(C(=O)CO)C[C@@H]3O[C@H]1C[C@H](N)[C@H](O)[C@H](C)O1 [Adriamycin, doxorubicin hydrochloride]
[1]
  myocardial toxic damage by electron microscopy: loss and fragmentation of myofilaments with concomitant clearing of organelles and swelling of sarcoplasmic areas; also recorded: degenerative changes with vacuolation of the smooth endoplasmic reticulum and loss of myofibrils; also recorded: Progression of damage could be seen with greater intensity on day 7
[2]
  T/C (Treated vs. Control), survival: 132%
[3]
  uptake by heart muscle (in words): taken up avidly and preferentially by heart muscle
In vivo
  Cmax: 8300 ng/g
  Tmax: 30 min
[4]
  cumulative dose correlated with cumulative myocardial damage: > 500 mg/m^2

## COc1cccc2c1C(=O)c1c(O)c3c(c(O)c1C2=O)C[C@@](O)(C(C)=O)C[C@@H]3O[C@H]1C[C@H](N)[C@H](O)[C@H](C)O1 [daunorubicin]
[4]
  cardiotoxicity (in words): cardiotoxic effects
